{"source": "patent US20220380574A1", "about": "“DUAL-FUNCTION MELT ADDITIVES” (3M INNOVATIVE PROPERTIES COMPANY, priority 2019, published 2022)", "system": "S. aureus ATCC 6538", "assay": "Modified AATCC Method 100, antibacterial activity of nonwoven BMF webs (viable cell count after 24 hrs)", "format": "cell-based", "details": "statement in words on the additive in electret webs", "from_the_text": "Besides the charge-enhancing properties, the charge-enhancing additives also provide anti-microbial properties. Antimicrobials are agents that kill microorganisms or stops their growth. Antimicrobials work at a cellular level to continually disrupt and prevent the growth of microorganisms. By creating an inhospitable environment for microorganisms like bacteria, mold and mildew, antimicrobials protect everyday products like countertops, toys, surface coatings, textiles and hospital equipment. The antimicrobial activity of the current charge-enhancing additives in electret webs can be measured in a variety of different ways. One particularly suitable measurement technique is the standard test method of “Modified AATCC Method 100—Assessment of Antibacterial Finishes on Textile Materials” was used for the nonwoven webs performance test. This method is used to evaluate the antibacterial activity of textile products treated with antibacterial finish, which is suitable for nonwoven hydrophobic fabric webs. Details of the test method are provided in the Examples section, below. The standard test method of “Modified AATCC Method 100—Assessment of Antibacterial Finishes on Textile Materials” was used for the nonwoven webs performance test. […] Viable cell count of S. Aureus ATCC 6538 on BMF web after 24 hrs were measured.", "data": [{"smiles": "c1ccc(-c2nc3ccccc3[nH]2)cc1", "note": "[CA-4, 2-Phenylbenzimidazole]", "values": [{"measurement": "combination of charge-enhancing and anti-microbial properties", "result": "do not have this combination of properties"}]}]}
